# Where “and” joins values, the source holds several entries; their conditions need not be identical. Equal values may be shown once.
# Assays:
# [1] = test system: MRSA bacteria; assay: In vitro calorimetry (MRSA) in presence and absence of TAG
# [2] = test system: bacteria; assay: Microcalorimetry activity of Vanco-Bis-TCO-Glycine; assay type: cell-based; details: tested up to 64 μg/ml (32 μM), without activating gel
# [3] = Aqueous solubility of Example 13B under different buffer conditions
# [4] = test system: methicillin-resistant Staphylococcus Aureus SP231; assay: Rat knee joint MRSA infection study; assay type: in vivo; details: rats; TAG (right knee) vs unmodified alginate control gel (left knee); prodrug via tail vein; 24 h; p<0.05
# Method: Prodrug, TCO-Dapto was delivered systemically via tail vein. Mean±SEM of n=3, unpaired two-tailed Welch's t-test, *p<0.05.
# Female Sprague-Dawley rats of age 6-8 weeks were approved for this study by the Institution of Animal Care and Use Committee (IACUC). Neutropenia was induced with cyclophosphamide intraperitoneally, 4 days (150 mg/kg) and 1 day (100 mg/kg) prior to gel injections. Animals received intra-articular injections of […] of 2.5% w/v of Cy5-modified alginate TAG (right knee) or unmodified alginate-Cy5 gel control (left knee) mixed with […] of 10^8 CFU/mL of methicillin-resistant Staphylococcus Aureus SP231 bacteria. After 2 h, animals received 61 μM of transcyclooctene-modified daptomycin-glycine (TCO-Dapto) via tail vein IV at standard dosing volume. After 24 h of gel injections, knee joints were harvested, homogenized and diluted in Dubelco's Phosphate buffered saline (D-PBS). Homogenized mixture was plated onto trypticase soy agar plates containing 5% sheep's blood duplicate. Bacterial colonies were enumerated following 20 h of incubation and bacterial load as LOG CFU/g of knee joint was determined. Statistical analysis was performed with Welch's two-tailed t-test and * denotes p<0.05. Error bars indicate standard error over means of n=3.
# [5] = Phosphate Buffer pH 6.5, final pH 6.1
# [6] = Phosphate Buffer pH 7.5, final pH 5.4
Compound,MHIC in the absence of TAG relative to presence of TAG [1],activity against bacteria as measured by microcalorimetry [2],"Solubility, Mean ([3]; Buffer: Water, final pH 3.4)","Solubility, Value ([3]; Buffer: Water, final pH 3.4)","Solubility, Mean [3, 5]","Solubility, Value [3, 5]","Solubility, Mean [3, 6]","Solubility, Value [3, 6]",bacterial loading of harvested knee joint [4]
"CC(C)CC(C(=O)N[C@H]1C(=O)N[C@@H](CC(N)=O)C(=O)N[C@H]2C(=O)N[C@H]3C(=O)N[C@H](C(=O)N[C@H](C(=O)O)c4cc(O)cc(O)c4-c4cc3ccc4O)[C@H](O)c3ccc(c(Cl)c3)Oc3cc2cc(c3O[C@@H]2O[C@H](CO)[C@@H](O)[C@H](O)[C@H]2O[C@H]2C[C@](C)(NC(=O)O[C@@H]3/C=C/CC[C@](C)(C(=O)NCC(=O)O)CC3)[C@H](O)[C@H](C)O2)Oc2ccc(cc2Cl)[C@H]1O)N(C)C(=O)O[C@@H]1/C=C/CC[C@](C)(C(=O)NCC(=O)O)CC1 (stereo partly drawn) [Example 13C, Vanco-Bis-TCO-glycine Conjugate]",8 ×,no activity,,,,,,,
"CCCCCCCCCC(=O)NC(Cc1c[nH]c2ccccc12)C(=O)NC(CC(N)=O)C(=O)NC(CC(=O)O)C(=O)NC1C(=O)NCC(=O)NC(CCCNC(=O)OC2C=CCCC(C)(C(=O)NCC(=O)O)CC2)C(=O)NC(CC(=O)O)C(=O)NC(C)C(=O)NC(CC(=O)O)C(=O)NCC(=O)NC(CO)C(=O)NC(C(C)CC(=O)O)C(=O)NC(CC(=O)c2ccccc2N)C(=O)OC1C (stereo not drawn) [Example 13B, Dapto-TCO-Glycine]",,,0.15 mg/mL,0.15 mg/mL and 0.14 mg/mL,10.9 mg/mL,10.8 mg/mL and 10.9 mg/mL,38.3 mg/mL,38.1 mg/mL and 38.3 mg/mL,reduces MRSA infection in vivo in a knee joint

# Source: patent US12296017B2, “Bioorthogonal compositions” (TAMBO, INC., priority 2017, dated 2025)
